Earlier results as cited in patent publication US20100292326A1, “PHARMACEUTICAL COMPOSITION COMPRISING S-NITROSOGLUTATHIONE AND POLYSACCHARIDE” (priority 2007, published 2010).

Details: buffer

In the case of `N[C@@H](CCC(=O)N[C@@H](CSN=O)C(=O)NCC(=O)O)C(=O)O` [GSNO, S-nitrosoglutathione], the half-life is listed as 5.5 h.
